This note sets out measurements from patent publication US20240325544A1, “CATIONIC LIPID FOR COVALENT MODIFICATION OF PEPTIDES” (PharmalN Corporation, priority 2023, published 2024).

Bridge positions count the residues as written; N and C are the ends. Square brackets hold non-standard residues; d marks the D form. Peptide text beside a SMILES is read from it. * marks the point of attachment. Palmitoyl = CCCCCCCCCCCCCCCC(=O)*; Dap = NC[C@H](N)C(=O)O; AEEA = NCCOCCOCC(=O)O

One experiment deals with C57BL/6J mice. The experiment in a line: Bleomycin mouse model of idiopathic pulmonary fibrosis, alveolar area (FIG. 8). The conditions noted are these: Day 21. In kind it is in vivo. On the procedure: FIGS. 8A-8B. […] Additionally, a normal control group (NC; n=3) without Bleo, and a Bleo Control group (n=7) without test article treatment were also included in this study. On Day 21 post Bleo administration, the mice were sacrificed under isoflurane anesthesia, and their lung tissues were harvested. FIG. 8B) A part of the lung tissue was fixed in 4% PFA, and Azan staining was performed, and alveolar areas (inversely proportional to the degree of fibrosis) were measured by Image J in a blinded setting. Error bars indicate standard error of the mean. Statistical analysis was performed by Student t-test on GraphPad Prism (n=3, 7, 7, 7, and 7); NC, Bleo Control, SEQ ID NO: 31, Pir, and Combo (SEQ ID NO: 31 & pirfenidone) *** P<0.001, ns=not significant vs NC.
Animal care and treatment: Male C57BL/6J mice (6 weeks-old) were purchased from Kyudo (Saga, Japan) and maintained under a 12-hour light/12-hour dark cycle with free access to water and standard mouse diet (MF diet, Oriental Yeast Co., Ltd. Tokyo, Japan). To induce lung fibrosis, mice received IT administration of bleomycin (Bleo; 1.0 mg/kg; Nippon Kayaku Tokyo, Japan). […] Alveolar area, which is inversely proportional to fibrotic area, were measured by Image J in a blinded setting (NIH, Bethesda, MD, USA).

The test system of experiment [1] is E0771 breast cancer cells. Briefly: Orthotopic E0771 breast cancer model, monotherapy or with anti-PD1 Ab (FIG. 9). It counts as in vivo, mice. On the procedure: FIG. 9. […] Error bars represent standard error of the mean. Tumor growth kinetics of 6-week-old female C57BL/6J mice (n=7-8 per group) that were orthotopically inoculated with E0771 breast cancer cells (250,000 cells/mouse) in the mammary gland. Starting from Day 4 post-inoculation, anti-PD1 Ab (aPD1) was administered intraperitoneally at 5 mg/kg twice a week for 2 cycles; SEQ ID NO: 31 was administered subcutaneously at a bolus dose of 0.3 mg/kg once daily for 5 days (5 days on, 2 days off) for 3 cycles; or a combination of aPD1 (5 mg/kg IP twice a week; 2 cycles) and SEQ ID NO: 31 (0.3 mg/kg SC once a day for 5 days on and 2 days off; 3 cycles); SEQ ID NO: 31 dose days indicated by dotted line or gridlines. The control group, which received only buffer, was dosed in the same manner as SEQ ID NO: 31 to establish the baseline tumor growth kinetics. […] Statistical analysis was based on Dunnett's test performed by using GraphPad (n=8, 7, 8, and 7; Control, aPD1, SEQ ID NO: 31, Combo (aPD1 and SEQ ID NO: 31) * P<0.05, **** P<0.0001 vs Control group.
Animal care and treatment: Female C57BL/6J mice (6 weeks-old) were purchased from Kyudo (Saga, Japan) and maintained under a 12-hour light/12-hour dark cycle with free access to water and standard mouse diet (CRF diet; Oriental Yeast Co., Ltd, Tokyo Japan). […] Tumor sizes were measured using calipers.

On to `CCCCCCCCCCCCCCCC(=O)NCCOCCOCC(=O)NCCOCCOCC(=O)NCCOCCOCC(=O)N[C@@H](CN)C(=O)N[C@@H](CN)C(=O)NCC(=O)N[C@@H](CC(C)C)C(=O)N[C@@H](CO)C(=O)N[C@@H](CCCCN)C(=O)NCC(=O)N[C@H]1CSSC[C@@H](C(=O)O)NC(=O)CNC(=O)[C@H](CC(C)C)NC(=O)CNC(=O)[C@H](CO)NC(=O)[C@H](CCC(N)=O)NC(=O)[C@H](CO)NC(=O)CNC(=O)[C@H]([C@@H](C)CC)NC(=O)[C@H](CCCNC(=N)N)NC(=O)[C@H](CC(=O)O)NC(=O)[C@H](CC(C)C)NC(=O)[C@H](CCCCN)NC(=O)[C@H](CC(C)C)NC(=O)CNC(=O)[C@H](Cc2ccccc2)NC1=O` [SEQ ID NO: 31] ({Palmitoyl-AEEA-AEEA-AEEA}-[Dap][Dap]GLSKGCFGLKLDRIGSQSGLGC-OH; disulfide 8-24; C-terminus assumed), for which the “Alveolar area (inversely proportional to fibrosis)” value in the experiment on C57BL/6J mice (alone, 0.3 mg/kg SC once a day on weekdays from day 7) is given as “significantly higher alveolar area”; with C57BL/6J mice (in combination with pirfenidone 100 mg/kg orally), “significantly higher alveolar area”. The “Tumor volume compared to Control group and aPD1 group” value in experiment [1] (combination with aPD1 5 mg/kg IP twice a week, 2 cycles) is on record as “significant decrease in tumor volume”; in experiment [1] (monotherapy, 0.3 mg/kg SC, 5 days on, 2 days off, 3 cycles), “significant decrease in tumor volume”.
